Measurements published in the Deep4Chem optical property database.
“And” between values parts separate entries of the source, which are not always exact repeats. Identical values can stand only once.

Assay: solvent given as SMILES

For `Oc1cccc(/N=C/c2ccccc2Oc2ccccc2)c1`, the absorption maximum (in C1CCCCC1) was 322 nm, the absorption maximum (in C1CCOC1) was 327 nm and the absorption maximum (in C1COCCO1) was 325 nm. For the same compound, the absorption maximum (in CC#N) was 328 nm, the absorption maximum (in CC(C)CO) was 323 nm and the absorption maximum (in CC(C)O) was 324 nm. It also gave an absorption maximum (in CCCCC) of 318 nm, an absorption maximum (in CCCCCC) of 320 nm and an absorption maximum (in CCCCCCCCO) of 329 nm. The absorption maximum (in CCCCCCCO) was 325 nm, the absorption maximum (in CCCCCCO) was 321 nm and the absorption maximum (in CCCCO) was 331 nm. It also gave an absorption maximum (in CCCCOC(C)=O) of 326 nm, an absorption maximum (in CCCO) of 328 nm and an absorption maximum (in CCO) of 327 nm. For the same compound, the absorption maximum (in CCOC(C)=O) was 321 nm, the absorption maximum (in CCOCC) was 327 nm and the absorption maximum (in CN(C)C=O) was 329 nm. The absorption maximum (in CO) was 328 nm, the absorption maximum (in CS(C)=O) was 329 nm and the absorption maximum (in Cc1ccccc1) was 324 nm. For the same compound, the absorption maximum (in Cc1ccccc1C) was 327 nm, the absorption maximum (in ClC(Cl)Cl) was 328 nm and the absorption maximum (in ClCCl) was 325 nm. It also gave an absorption maximum (in N#Cc1ccccc1) of 344 nm, an absorption maximum (in OCCO) of 328 nm and an absorption maximum (in c1ccccc1) of 328 nm.

Work on `F[B-]1(F)N2C(=Nc3cccc4cccc2c34)c2cccc[n+]21` yielded an absorption maximum (in CC#N) of 350 nm, an absorption maximum (in CO) of 348 nm and an absorption maximum (in CS(C)=O) of 351 nm. The absorption maximum (in Cc1ccccc1) was 354 nm.

Work on `S=c1[nH]nc(-c2ccc(/C=C/c3ccc(-c4n[nH]c(=S)o4)cc3)cc2)o1` yielded an absorption maximum (in CN(C)C=O) of 334 nm.

`CCCCN1C(=O)c2cccc3c(C#CC#Cc4ccc5c6c(cccc46)C(=O)N(CCCC)C5=O)ccc(c23)C1=O` showed an absorption maximum (in ClCCl) of 372 nm.

Work on `CCCCCCCCN1C(=O)c2ccc3c4c(-c5ccc(N(c6ccccc6)c6ccccc6)cc5)cc5c6c(ccc(c7c(-c8ccc(N(c9ccccc9)c9ccccc9)cc8)cc(c2c37)C1=O)c64)C(=O)N(CCCCCCCC)C5=O` yielded an absorption maximum (in ClC(Cl)Cl) of 645 nm.

In the case of `C(C#Cc1ccc2ccc3cccc4ccc1c2c34)#Cc1cccc2ccccc12`, the absorption maximum (in C1CCCCC1) is reported as 409 nm, the absorption maximum (in CC#N) is reported as 407 nm and the absorption maximum (in CO) is reported as 406 nm. It also gave an absorption maximum (in ClCCl) of 412 nm.

For `CCOC(=O)c1c(-c2c(Cl)c3ccccc3oc2=O)nn(-c2cccc(Cl)c2)c1C(=O)OCC`, the absorption maximum (in ClCCl) was 321 nm.

For `Cc1ccc2c(c1)c1cc(C)ccc1n2-c1cccc(-n2c3ccc(C)cc3c3cc(C)ccc32)c1C#N`, the absorption maximum (in Cc1ccccc1) was 368 nm.

For `CCCCc1ccc2ccc3cccc4ccc1c2c34`, the absorption maximum (in CCCCCC) was 338 nm, the absorption maximum (in CO) was 338 nm and the absorption maximum (in ClCCl) was 341 nm.

`Cc1ccc(/C2=c3\cc/c(o3)=C(\c3ccc(C)cc3)c3ccc([nH]3)-c3ccc4n3[B-](F)(F)[N+]3=C(C=CC3=C4c3cccs3)c3ccc2[nH]3)cc1` gave an absorption maximum (in ClC(Cl)Cl) of 709 nm.

In the case of `CN(C)c1ccc(C2=Cc3cccc[n+]3[B-](F)(F)O2)cc1`, the absorption maximum (in C1CCOC1) is reported as 420 nm, the absorption maximum (in C1COCCO1) is reported as 417 nm and the absorption maximum (in CC1CCCCC1) is reported as 413 nm. For the same compound, the absorption maximum (in CC#N) was 417 nm, the absorption maximum (in CCOC(C)=O) was 416 nm and the absorption maximum (in CCOCC) was 413 nm. The absorption maximum (in CN(C)C=O) was 423 nm, the absorption maximum (in CO) was 418 nm and the absorption maximum (in COC(C)=O) was 417 nm. It also gave an absorption maximum (in ClC(Cl)Cl) of 426 nm.

`CCCCn1/c(=C/C=C/C2=[N+](C)c3ccccc3C2(C)C)c2cccc3cccc1c32` showed an absorption maximum (in CS(C)=O) of 672 nm.

With `C1=Cc2ccccc2C(=Cc2ccc(-c3ccc(C=C4c5ccccc5C=Cc5ccccc54)cc3)cc2)c2ccccc21` the absorption maximum (in C1CCOC1) was 339 nm.

`CC1(C)CC(/N=C/c2ccc3ccc4cccc5ccc2c3c45)CC(C)(C)N1` gave an absorption maximum (in C1CCCCC1) of 360 nm, an absorption maximum (in CC#N) of 358 nm and an absorption maximum (in CO) of 359 nm. For the same compound, the absorption maximum (in ClC(Cl)Cl) was 361 nm.

Compound `c1ccc(N(c2ccccc2)c2ccc(-c3nc4ccccc4n3-c3ccccc3)cc2)cc1` has an absorption maximum (in CC#N) of 339 nm.

In the case of `CC(C)[Si](C#Cc1c2ccccc2c(C#Cc2c3ccccc3c(C#Cc3c4ccccc4c(C#Cc4c5ccccc5c(C#C[Si](C(C)C)(C(C)C)C(C)C)c5ccccc45)c4ccccc34)c3ccccc23)c2ccccc12)(C(C)C)C(C)C`, the absorption maximum (in Cc1ccccc1) is reported as 582 nm.

Work on `COc1ccc2c(c1)[nH]c1c3[nH]c4cc(OC)ccc4c3c3nsnc3c21` yielded an absorption maximum (in CN(C)C=O) of 436 nm, an absorption maximum (in Cc1ccccc1) of 425 nm and an absorption maximum (in ClCCl) of 430 nm.

Work on `COc1ccc(C#Cc2ccccc2C#Cc2ccc(OC)cc2)cc1` yielded an absorption maximum (in CC#N) of 320 nm.

With `Cc1ccc(NC(=O)c2sc(Br)nc2C)cc1` the absorption maximum (in C1CCOC1) was 301.5 nm, the absorption maximum (in CC#N) was 281.6 nm and the absorption maximum (in CCCCCC) was 286.9 nm. The absorption maximum (in CCOC(C)=O) was 286.1 nm, the absorption maximum (in CN(C)C=O) was 287.1 nm and the absorption maximum (in CO) was 282.1 nm. For the same compound, the absorption maximum (in CS(C)=O) was 283.5 nm and the absorption maximum (in ClC(Cl)Cl) was 288.3 nm.

In the case of `Cn1c(=O)c(/N=N/c2cc(S(=O)(=O)O)ccc2C(=O)O)c(O)c2ccccc21`, the absorption maximum (in C1CCOC1) is reported as 408 nm, the absorption maximum (in CC(C)=O) is reported as 407 nm and the absorption maximum (in CCOC(C)=O) is reported as 407 nm. The absorption maximum (in CO) was 406 nm, the absorption maximum (in CS(C)=O) was 417 nm and the absorption maximum (in Cc1ccccc1) was 421 nm. The absorption maximum (in ClCCl) was 420 nm and the absorption maximum (in O) was 421 nm.

In the case of `CCCCC(CC)Cn1c2cc(C#N)ccc2c2ccc(C#Cc3ccc4ccc5ccc(C#Cc6ccc7c8ccc(C#N)cc8n(CC(CC)CCCC)c7c6)c6ccc3c4c56)cc21` (configuration not stated), the absorption maximum (in ClCCl) is reported as 447 nm.

With `C(#Cc1cc2ccc3cc(C#Cc4ccccc4)cc4ccc(c1)c2c34)c1ccccc1` the absorption maximum (in Cc1ccccc1) was 410 nm.

Compound `CC(C)[Si](C#Cc1ccc2c(C#C[Si](C(C)C)(C(C)C)C(C)C)cc3c4cc(C#C[Si](C(C)C)(C(C)C)C(C)C)ccc4c(C#C[Si](C(C)C)(C(C)C)C(C)C)cc3c2c1)(C(C)C)C(C)C` has an absorption maximum (in ClCCl) of 394 nm.

In the case of `c1ccc(-c2nc(-c3ccc(-c4nc(-c5ccccc5)c(-c5ccccc5)[nH]4)cc3)[nH]c2-c2ccccc2)cc1`, the absorption maximum (in C1CCOC1) is reported as 361 nm, the absorption maximum (in CC#N) is reported as 355 nm and 358 nm and the absorption maximum (in CC(=O)O) is reported as 360 nm. The absorption maximum (in CC(C)=O) was 360 nm, the absorption maximum (in CCOC(C)=O) was 359 nm and the absorption maximum (in CCOCC) was 359 nm. For the same compound, the absorption maximum (in CO) was 357 nm, the absorption maximum (in CS(C)=O) was 380 nm and the absorption maximum (in ClC(Cl)Cl) was 358 nm.

Compound `CCCCOc1c(-c2ccc(N(c3ccccc3)c3ccccc3)cc2)cc2cc(-c3ccc(N(c4ccccc4)c4ccccc4)cc3)c(OCCCC)c3c4c(OCCCC)c(-c5ccc(N(c6ccccc6)c6ccccc6)cc5)cc5cc(-c6ccc(N(c7ccccc7)c7ccccc7)cc6)c(OCCCC)c(c1c23)c54` has an absorption maximum (in ClCCl) of 422 nm.

`Cc1ccc(C(=O)OCc2c(C)c(=O)n3c(=O)c(C)c(C)n23)cc1` showed an absorption maximum (in CCO) of 376 nm.

For `CCN(CC)c1ccc2cc(C#N)/c(=N\C(=O)C(C)C)oc2c1`, the absorption maximum (in CCO) was 422 nm and the absorption maximum (in ClCCl) was 428 nm.

With `COCCOCCOCCOCC(COCCOCCOCCOC)Oc1cc(/C=C/c2ccc(/C=C(\C#N)c3ccccc3)cc2)c(OC(COCCOCCOCCOC)COCCOCCOCCOC)cc1/C=C/c1ccc(/C=C(\C#N)c2ccccc2)cc1` the absorption maximum (in ClCCl) was 433 nm.

`COc1ccc(-c2c3cc4cc(C)sc4cc3c(-c3ccc(OC)cc3)c3cc4cc(C)sc4cc23)cc1` gave an absorption maximum (in ClCCl) of 500 nm.

With `C1=C(c2ccccn2)[Si](c2ccccc2)(c2ccccc2)c2ccccc21` the absorption maximum (in ClCCl) was 339 nm.

`Cc1cc(C)c(C2=C(c3c(C)sc(-c4ccc(-c5nc(-c6ccccc6)c(-c6ccccc6)[nH]5)cc4)c3C)C(F)(F)C(F)(F)C2(F)F)s1` showed an absorption maximum (in C1CCOC1) of 332 nm.

In the case of `COc1ccc(-c2cc3c(ccc4sc(/C=C/c5cccs5)cc43)s2)cc1`, the absorption maximum (in ClCCl) is reported as 376 nm.

With `c1ccc(-c2nc(-c3ccc(-c4cccs4)s3)[nH]c2-c2ccccc2)cc1` the absorption maximum (in CC#N) was 365 nm.

With `Cc1c(C)n2c(COC(=O)c3ccccc3I)c(C)c(=O)n2c1=O` the absorption maximum (in CCO) was 377 nm.

For `CCN(CC)c1ccc(/C=C/C2=[O+][B-](F)(F)Oc3c2c(=O)oc2cc(N(CC)CC)ccc32)cc1`, the absorption maximum (in C1CCCCC1) was 542 nm, the absorption maximum (in C1COCCO1) was 569 nm and the absorption maximum (in CC#N) was 589 nm. The absorption maximum (in CC(C)=O) was 584 nm, the absorption maximum (in CCO) was 581 nm and the absorption maximum (in CCOC(C)=O) was 571 nm. For the same compound, the absorption maximum (in CO) was 582 nm, the absorption maximum (in CS(C)=O) was 607 nm and the absorption maximum (in Cc1ccccc1) was 567 nm. It also gave an absorption maximum (in ClC(Cl)Cl) of 581 nm, an absorption maximum (in ClCCl) of 587 nm and an absorption maximum (in OCC(O)CO) of 610 nm. The absorption maximum (in OCCO) was 605 nm.

In the case of `CNc1ccc(/C=C/C(=O)OC)cc1`, the absorption maximum (in O) is reported as 347.28 nm.

`CC1=C2C=CC(c3ccccc3)=[N+]2[B-](F)(F)n2c1ccc2-c1ccccc1` gave an absorption maximum (in ClCCl) of 544 nm.

`O=[N+]([O-])c1ccc(C#Cc2ccccc2C#Cc2ccc([N+](=O)[O-])cc2)cc1` showed an absorption maximum (in CC#N) of 350 nm.

Work on `Cc1cc2c3ccccc3n(C)c2c2c1c1ccccc1n2C` yielded an absorption maximum (in ClCCl) of 329 nm.

`CC1(C)c2ccccc2N(c2ccc(-c3nc4c(C#N)ccc(C#N)c4nc3-c3ccc(N4c5ccccc5C(C)(C)c5ccccc54)cc3)cc2)c2ccccc21` gave an absorption maximum (in Cc1ccccc1) of 479 nm.

Compound `C(=C\c1ccc(-c2nnc(-c3ccccc3)o2)cc1)/c1ccc(-c2nnc(-c3ccccc3)o2)cc1` has an absorption maximum (in CN(C)C=O) of 347 nm.

For `CN1C(=CC2=C([O-])C(=O)C2=C(C#N)C#N)C=Cc2ccccc21`, the absorption maximum (in CCO) was 515 nm.

In the case of `CCOC(=O)c1c(-c2cc3c(ccc4ccccc43)oc2=O)nn(-c2cccc(Cl)c2)c1C(=O)OCC`, the absorption maximum (in ClCCl) is reported as 361 nm.

With `CC1=CC(C)(C)N(C)c2cc3c(cc21)C(c1ccc(Br)cc1)=c1cc2c(cc1O3)=[N+](C)C(C)(C)C=C2C` the absorption maximum (in CCO) was 594 nm.

`CC1(C)c2ccccc2N(c2ccc(C(=C(C#N)C#N)c3ccc(N4c5ccccc5C(C)(C)c5ccccc54)cc3)cc2)c2ccccc21` gave an absorption maximum (in Cc1ccccc1) of 436 nm.

`C[P+]1(c2ccccc2)c2ccccc2-c2sc3ccccc3c21` (configuration not stated) gave an absorption maximum (in CC#N) of 335 nm, an absorption maximum (in CCO) of 336 nm and an absorption maximum (in ClCCl) of 340 nm.

With `CCn1c2ccccc2c2cc(-c3cc(-c4ccc5c(c4)c4ccccc4n5CC)nc(-c4ccc(C#N)cc4)n3)ccc21` the absorption maximum (in C1CCOC1) was 367 nm, the absorption maximum (in CCOC(C)=O) was 363 nm and the absorption maximum (in CN(C)C=O) was 370 nm. The absorption maximum (in Cc1ccccc1) was 366 nm and the absorption maximum (in ClCCl) was 365 nm.

With `Cc1cc(C)c(B2c3cc(C(C)(C)C)ccc3-c3cccc4cc(C(C)(C)C)cc2c34)c(C)c1` the absorption maximum (in C1CCCCC1) was 409 nm.
